Assay [1] has as its target T1, HsProRS (Homo sapiens, UniProt P07814).
T1 sequence (P07814 1007-1512 limits assumed): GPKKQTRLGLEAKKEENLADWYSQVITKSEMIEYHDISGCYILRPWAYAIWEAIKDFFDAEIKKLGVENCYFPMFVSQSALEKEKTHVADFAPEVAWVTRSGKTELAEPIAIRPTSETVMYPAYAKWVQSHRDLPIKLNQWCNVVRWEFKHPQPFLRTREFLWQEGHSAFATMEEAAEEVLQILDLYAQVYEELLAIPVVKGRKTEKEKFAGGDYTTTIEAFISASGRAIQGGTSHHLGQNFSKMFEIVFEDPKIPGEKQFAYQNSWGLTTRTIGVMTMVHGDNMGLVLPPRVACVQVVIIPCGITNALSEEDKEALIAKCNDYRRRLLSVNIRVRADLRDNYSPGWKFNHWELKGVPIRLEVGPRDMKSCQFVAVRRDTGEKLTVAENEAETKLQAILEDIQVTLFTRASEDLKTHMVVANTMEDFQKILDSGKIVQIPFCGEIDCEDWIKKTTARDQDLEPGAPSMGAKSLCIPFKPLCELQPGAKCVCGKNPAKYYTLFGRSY
As to the kind of experiment: TR-FRET ligand displacement assay with tracer MAT379, HsProRS. Type of assay: binding.

For assay [2], the system named is P. falciparum Dd2-2D4. As to the kind of experiment: P. falciparum asexual blood stage growth assay, wild-type Dd2-2D4. The following applies: for EC50: Plasmodium falciparum, DD2, 72 h, read-out: Dd2 (EC50 [nM]) wt.
In assay [3] the target is PfcProRS (Plasmodium falciparum, UniProt Q8I5R7). Kind of assay: TR-FRET ligand displacement assay with tracer MAT379, PfcProRS. Type of assay: binding. A general note: TR-FRET usually uses a lanthanide donor and a delayed reading to cut background.
Setting [4] is: read-out: HsProRS (KD [nM]) +proline, 100 μM Pro.
The mark [5] stands for this setting: no proline, no ATP, read-out: HsProRS (KD [nM]) −.
[6] abbreviates: no proline, no ATP, read-out: PfcProRS (KD [nM]) −.
[7] abbreviates: PfcProRS (KD [nM]) +proline, 100 μM Pro.
Where [8] appears, read: read-out: PfcProRS (KD [nM]) +proline, 100 μM Pro.

pKd: −log10 of the molar value. Structures can show the parent of a compound that is named as a salt. Where two headings read alike, the source gives them in different places.

The source of these data is patent publication US20250228855A1, “PYRAZINAMIDE COMPOUNDS” (The General Hospital Corporation, priority 2022, published 2025).

The Kd is the free concentration of one partner at which half of the binding sites on the other are occupied at equilibrium, for simple one-to-one binding. By EC50 is commonly meant the concentration at which the effect is half-maximal. The pKd is −log10 of the Kd, conventionally taken in molar units. The low end stands for a high Kd, the high end for a low Kd.

Sequence of PfcProRS (Q8I5R7 whole entry): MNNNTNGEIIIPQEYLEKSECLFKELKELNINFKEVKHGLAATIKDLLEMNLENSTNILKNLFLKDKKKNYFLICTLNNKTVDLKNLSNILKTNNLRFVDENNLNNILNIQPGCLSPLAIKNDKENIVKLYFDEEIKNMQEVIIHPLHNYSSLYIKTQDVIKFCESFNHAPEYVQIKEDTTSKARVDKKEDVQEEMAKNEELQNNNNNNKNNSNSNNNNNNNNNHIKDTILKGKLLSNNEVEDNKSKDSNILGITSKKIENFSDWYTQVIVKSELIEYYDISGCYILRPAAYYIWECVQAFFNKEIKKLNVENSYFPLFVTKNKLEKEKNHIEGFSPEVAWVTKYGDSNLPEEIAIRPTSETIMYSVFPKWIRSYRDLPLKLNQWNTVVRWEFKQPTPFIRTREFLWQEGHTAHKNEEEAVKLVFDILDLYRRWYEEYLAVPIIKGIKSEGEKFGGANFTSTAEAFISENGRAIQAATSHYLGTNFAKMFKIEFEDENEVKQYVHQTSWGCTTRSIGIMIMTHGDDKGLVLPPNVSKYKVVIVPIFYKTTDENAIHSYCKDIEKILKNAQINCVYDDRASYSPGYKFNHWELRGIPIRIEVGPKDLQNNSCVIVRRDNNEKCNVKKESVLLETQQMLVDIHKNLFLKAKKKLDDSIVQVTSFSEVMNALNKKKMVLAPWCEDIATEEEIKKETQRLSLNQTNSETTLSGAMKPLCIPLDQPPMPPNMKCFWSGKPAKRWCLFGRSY

In the case of `O=C(C[C@@H]1NCCC[C@@H]1OC(=O)NS(=O)(=O)N1CCN(C(=O)Nc2nccnc2C(=O)NC2Cc3ccccc3C2)CC1)Cn1cnc2cc(Br)c(Cl)cc2c1=O` (relative stereo) [iso-MAT436(40), cis-2-(3-(7-bromo-6-chloro-4-oxoquinazolin-3(4H)-yl)-2-oxopropyl)piperidin-3-yl ((4-((3-((2,3-dihydro-1H-inden-2-yl)carbamoyl)pyrazin-2-yl)carbamoyl)piperazin-1-yl)sulfonyl)carbamate], in assay [1] (setting [4]), the Kd was found to be 20.8 nM. Further, the “fold less active than MAT436 against ABS P. falciparum” value in assay [2] came out at 3 fold. The “fold lower affinity / reduced biochemical potency relative to MAT436” value is about 10 fold in assay [3] and 5-10 fold in assay [3] (listed as 40).

As for `CC(C)N(C(=O)Nc1nccnc1C(=O)NC1Cc2ccccc2C1)C(C)C` [Compound 5, N-(2,3-dihydro-1H-inden-2-yl)-3-(3,3-diisopropylureido)pyrazine-2-carboxamide], the results for the Kd in assay [1] (setting [5]) and in assay [3] (setting [6]) were over 8720 nM and over 2860 nM, respectively. Further, the 50% effective concentration (EC50) in assay [2] is over 10000 nM.

As to `CC(C)(C)OC(=O)NC1CCN(C(=O)Nc2nccnc2C(=O)NC2Cc3ccccc3C2)CC1` [Compound 7, tert-butyl (1-((3-((2,3-dihydro-1H-inden-2-yl)carbamoyl)pyrazin-2-yl)carbamoyl)piperidin-4-yl)carbamate], the dissociation constant Kd is 22.1 nM in assay [1] (setting [5]) and 34.8 nM in assay [1] (setting [4]).

`NC1CCN(C(=O)Nc2nccnc2C(=O)NC2Cc3ccccc3C2)CC1` [Compound 8, 3-(4-aminopiperidine-1-carboxamido)-N-(2,3-dihydro-1H-inden-2-yl)pyrazine-2-carboxamide dihydrochloride] showed a pKd in assay [1] of under 5.29. The values for the Kd in assay [1] (HsProRS (KD [nM]) −), in assay [3] (setting [7]) and in assay [3] (setting [6]) were over 8720 nM, over 2180 nM and over 2860 nM, respectively.

`NCC1CCN(C(=O)Nc2nccnc2C(=O)NC2Cc3ccccc3C2)CC1` [Compound 10, 3-(4-(aminomethyl)piperidine-1-carboxamido)-N-(2,3-dihydro-1H-inden-2-yl)pyrazine-2-carboxamide dihydrochloride]: the Kd in assay [1] (HsProRS (KD [nM]) −) was over 8720 nM; in assay [1] (setting [4]), 1360 nM; in assay [3] (setting [7]) it was over 2180 nM; in assay [3] (setting [6]) it was over 2860 nM.

Take `O=C(NC1Cc2ccccc2C1)c1nccnc1NC(=O)N1CCC(CO)CC1` [Compound 11, N-(2,3-dihydro-1H-inden-2-yl)-3-(4-(hydroxymethyl)piperidine-1-carboxamido)pyrazine-2-carboxamide]: the values for the Kd in assay [1] (setting [5]) and in assay [3] (setting [6]) were 265 nM and 299 nM, respectively. In addition, the EC50 in assay [2] was found to be 712 nM.

For `CC(C)(C)OC(=O)N1CCN(C(=O)Nc2nccnc2C(=O)NC2Cc3ccccc3C2)CC1` [Compound 13, tert-butyl 4-((3-((2,3-dihydro-1H-inden-2-yl)carbamoyl)pyrazin-2-yl)carbamoyl)piperazine-1-carboxylate], in assay [1], the negative-log Kd (pKd) was under 5.29. Besides, the figures for the Kd in assay [1] (setting [5]), in assay [3] (setting [7]) and in assay [3] (setting [6]) were over 8720 nM, over 2180 nM and over 2860 nM, respectively.

Turning to `O=C(NC1Cc2ccccc2C1)c1nccnc1NC(=O)N1CCNCC1` [Compound 14, N-(2,3-dihydro-1H-inden-2-yl)-3-(piperazine-1-carboxamido)pyrazine-2-carboxamide dihydrochloride], the Kd in assay [1] (HsProRS (KD [nM]) −) was over 8720 nM; in assay [1] (setting [4]), 347 nM; in assay [3] (setting [7]), 1630 nM; in assay [3] (setting [6]), over 2860 nM.

Take `CC(C)(C)OC(=O)NC1(C(=O)Nc2nccnc2C(=O)NC2Cc3ccccc3C2)CCCCC1` [Compound 16, tert-butyl (1-((3-((2,3-dihydro-1H-inden-2-yl)carbamoyl)pyrazin-2-yl)carbamoyl)cyclohexyl)carbamate]: in assay [1], the negative-log Kd (pKd) is under 5.29. Also, the Kd in assay [1] (setting [5]) is over 8720 nM; in assay [3] (setting [7]) it was over 2180 nM; in assay [3] (setting [6]), over 2860 nM. Further, the EC50 in assay [2] stood at 6110 nM.

Turning to `NC1(C(=O)Nc2nccnc2C(=O)NC2Cc3ccccc3C2)CCCCC1` [Compound 17, 3-(1-aminocyclohexane-1-carboxamido)-N-(2,3-dihydro-1H-inden-2-yl)pyrazine-2-carboxamide], the Kd in assay [1] (setting [5]) is 4430 nM; in assay [1] (setting [4]), 25.5 nM; in assay [3] (setting [7]), 131 nM; in assay [3] (setting [6]) it was 1390 nM. The EC50 in assay [2] was determined as 5790 nM.

In the case of `O=C(NC1Cc2ccccc2C1)c1nccnc1NC(=O)C1CCOCC1` [Compound 18, N-(2,3-dihydro-1H-inden-2-yl)-3-(tetrahydro-2H-pyran-4-carboxamido)pyrazine-2-carboxamide], the Kd in assay [1] (setting [5]) was 7400 nM; in assay [1] (setting [4]) it was 225 nM; in assay [3] (setting [7]), 1590 nM; in assay [3] (setting [6]), over 2860 nM. Moreover, the EC50 in assay [2] is over 20000 nM.

Take `O=C(Nc1nccnc1C(=O)NC1Cc2ccccc2C1)c1ccccc1` [Compound 21, 3-benzamido-N-(2,3-dihydro-1H-inden-2-yl)pyrazine-2-carboxamide]: the Kd in assay [1] (setting [5]) is 7830 nM; in assay [1] (setting [4]), 140 nM; in assay [3] (setting [7]), 1430 nM; in assay [3] (setting [6]) it was over 2860 nM. For the same compound, the EC50 in assay [2] stood at 9600 nM.

Turning to `O=C(O)CCCC(=O)Nc1nccnc1C(=O)NC1Cc2ccccc2C1` [Compound 22, 5-((3-((2,3-dihydro-1H-inden-2-yl)carbamoyl)pyrazin-2-yl)amino)-5-oxopentanoic acid], the pKd in assay [1] is under 5.29. The Kd in assay [1] (setting [5]) is over 8720 nM; in assay [3] (setting [7]) it was over 2180 nM; in assay [3] (setting [6]), over 2860 nM. The EC50 in assay [2] is 12300 nM.

`NC(=O)Nc1nccnc1C(=O)NC1Cc2ccccc2C1` [Compound 23, N-(2,3-dihydro-1H-inden-2-yl)-3-ureidopyrazine-2-carboxamide]: the pKd in assay [1] is under 5.29. The Kd is over 8720 nM in assay [1] (setting [5]), over 2180 nM in assay [3] (setting [7]) and over 2860 nM in assay [3] (setting [6]). Also, the EC50 in assay [2] turned out to be 12100 nM.

Consider `Nc1nccnc1C(=O)NC1Cc2ccccc2C1` [Compound 45, 3-amino-N-(2,3-dihydro-1H-inden-2-yl)pyrazine-2-carboxamide], for which the pKd in assay [1] is under 5.29. Moreover, the figures for the Kd in assay [1] (setting [5]), in assay [3] (setting [7]) and in assay [3] (setting [6]) were over 8720 nM, over 2180 nM and over 2860 nM, respectively. The EC50 in assay [2] is 13600 nM.

With `CNc1nccnc1C(=O)NC1Cc2ccccc2C1` [Compound 46, N-(2,3-dihydro-1H-inden-2-yl)-3-(methylamino)pyrazine-2-carboxamide], the pKd in assay [1] was under 5.29. The Kd in assay [1] (setting [5]) was over 8720 nM; in assay [3] (setting [7]), over 2180 nM; in assay [3] (setting [6]), over 2860 nM. Moreover, the EC50 in assay [2] was found to be 8110 nM.

On to `O=c1[nH]c2nccnc2c(=O)n1C1Cc2ccccc2C1` [Compound 47, 3-(2,3-dihydro-1H-inden-2-yl)pteridine-2,4(1H,3H)-dione], for which the Kd was over 8720 nM in assay [1] (setting [5]), over 2180 nM in assay [3] (setting [7]) and over 2860 nM in assay [3] (setting [6]). The EC50 in assay [2] came out at 11100 nM.

`Nc1nccnc1C(=O)NC1CCCCC1` [Compound 48, 3-amino-N-cyclohexylpyrazine-2-carboxamide] showed a pKd in assay [1] of under 5.29. Moreover, the Kd in assay [1] (setting [5]) was over 8720 nM; in assay [3] (setting [7]), over 2180 nM; in assay [3] (setting [6]), over 2860 nM. Besides, in assay [2], the EC50 came out at 8740 nM.

Take `CC(C)(C)OC(=O)NCCCCCC(=O)NCCCCCC(=O)NC1CCN(C(=O)Nc2nccnc2C(=O)NC2Cc3ccccc3C2)CC1` [MAT420]: the Kd in assay [1] (setting [4]) worked out at 781 nM; in assay [1] (read-out: HsProRS (KD [nM]) −, no proline, no ATP) it was 415 nM; in assay [3] (setting [8]), 332 nM; in assay [3] (read-out: PfcProRS (KD [nM]) −, no proline, no ATP), 292 nM.

As for `NCCCCCC(=O)NCCCCCC(=O)NC1CCN(C(=O)Nc2nccnc2C(=O)NC2Cc3ccccc3C2)CC1` [MAT421], the Kd in assay [1] (setting [5]) amounted to 2340 nM; in assay [1] (setting [4]), 2260 nM; in assay [3] (setting [6]), 2280 nM; in assay [3] (setting [8]), 1960 nM.

On to `Nc1ncnc2c1ncn2[C@@H]1O[C@H](COS(=O)(=O)NC(=O)OC2CCCNC2CC(=O)Cn2cnc3cc(Br)c(Cl)cc3c2=O)[C@@H](O)[C@H]1O` (stereo partly drawn) [MAT430, ((2R,3S,4R,5R)-5-(6-amino-9H-purin-9-yl)-3,4-dihydroxytetrahydrofuran-2-yl)methy ((((2S,3R)-2-(3-(7-bromo-6-chloro-4-oxoquinazolin-3(4H)-yl)-2-oxopropyl)piperidin-3-yl)oxy)carbonyl)sulfamate], for which the Kd in assay [1] (setting [5]) came to 18.4 nM; in assay [3] (setting [6]) it was 5.01 nM.

With `O=C(CCCCCNC(=S)NC1CCCCC1)NC1CCN(C(=O)Nc2nccnc2C(=O)NC2Cc3ccccc3C2)CC1` [MAT483], the dissociation constant (Kd) in assay [1] (setting [5]) came out at 1000 nM; in assay [1] (setting [4]), 3020 nM; in assay [3] (setting [6]), 198 nM; in assay [3] (setting [8]) it was 171 nM.

Regarding `O=C(NS(=O)(=O)N1CCN(C(=O)Nc2nccnc2C(=O)NC2Cc3ccccc3C2)CC1)OCCn1cnc2ccccc2c1=O` [MAT512, 2-(4-oxoquinazolin-3(4H)-yl)ethyl ((4-((3-((2,3-dihydro-1H-inden-2-yl)carbamoyl)pyrazin-2-yl)carbamoyl)piperazin-1-yl)sulfonyl)carbamate], the EC50 in assay [2] is over 10000 nM.
